Numbered stars: 1 amine (or outer) side, 2 acyl side, 3 side chain; on linkers, the order of the positions; unused ones are H or OH. Bridge positions count the residues as written; N and C are the ends. Square brackets hold non-standard residues; d marks the D form. Peptide text beside a SMILES is read from it. I, II: the chains in the order shown. Actinocin(1to9) = Cc1c2oc3c(C)ccc(C(=O)[*:2])c3nc-2c(C(=O)[*:1])c(N)c1=O; NMeV = CN[C@H](C(=O)O)C(C)C; Sar = CNCC(=O)O
Tests used:
L1210 [1] = tested on: L1210
Description: (§1) Cross resistance profile versus L1210/R71 cells.

physchem = conditions: octanol/water, pH 7.4
[2] = octanol/water, pH 7.4
CHRC5 cell line [3] = format: functional, Cricetulus griseus
Description: Effect on collateral sensitivity of CHRC5 cells to local anesthetics/steroids.

CHO [4] = tested on: CHO
Description: (§2) Effect on cross resistance of CHO cells resistant to colchicine (CHRC5)

CCRF-CEM = assay: Effect on cross resistance of CCRF-CEM cells resistant to vincristine.; format: functional, Homo sapiens
CHO [5] = assay: Effect on cross resistance of chinese hamster ovary CHO cells resistant to colchicine (CHRC5); format: functional, Cricetulus griseus
L1210 [6] = assay: Cross resistance to the compound expressed as as log of ratio of molar concentration of drug inducing 50% inhibition of growth in murine leukemia L1210/R71 and L1210/0 cells; format: functional, Mus musculus
L1210 [7] = assay: Cross resistance to the compound expressed as log of ratio of molar concentration of drug inducing 50% inhibition of growth in murine leukemia L1210/R71 and L1210/0 cells; format: functional, Mus musculus
CHO [8] = assay: Cross resistance of chinese hamster cells resistant to actinomycin D as log of ratio of molar concentration of compound inducing 50% inhibition of growth in resistant and sensitive cells; format: functional, Cricetulus griseus
CHRC5 cell line [9] = tested on: CHRC5 cell line
Description: Collateral sensitivity of CHRC5 cells to local anesthetics/steroids as log of ratio of molar concentration of drug inducing 50% growth inhibition in CHO AUXB1 cells to that of CHRC5 cells

CHO [10] = conditions: Cricetulus griseus
Description: as §2

L1210 [11] = conditions: Mus musculus
Description: as §1

Compound	Log CR (L1210 [1])	logD (physchem)	other results
CC1(C)N=C(N)N=C(N)N1c1cccc(COc2cccc(-c3ccccc3)c2)c1	1.22	0.69	–
CC1(C)N=C(N)N=C(N)N1c1cccc(C(N)=O)c1	1.85	–	logD [2]: -4.49
CCCCCCCCCCCCc1cccc(N2C(N)=NC(N)=NC2(C)C)c1	0.52	3.41	–
CC1(C)N=C(N)N=C(N)N1c1cccc(Br)c1	2.06	-2.14	–
CC1(C)N=C(N)N=C(N)N1c1cccc(O)c1	1.86	-3.67	–
O=[N+]([O-])c1cccc2ccc[n+]([O-])c12	–	1.02	–
CC(=O)[C@H]1CC[C@H]2[C@@H]3CCC4CC(=O)CC[C@]4(C)[C@H]3CC[C@]12C (some centres not stated)	–	3.99	Log sensitivity (CHRC5 cell line [3]): 1
CC1(C)N=C(N)N=C(N)N1c1ccccc1	2.18	-3	–
CC(=O)c1cccc(N2C(N)=NC(N)=NC2(C)C)c1	2.2	-3.55	–
N[C@@H](Cc1ccc(N(CCCl)CCCl)cc1)C(=O)O	–	-0.52	Log CR (CHO [4]): 1.18
C[N+]1(C)CCC(OC(=O)C(c2ccccc2)c2ccccc2)CC1.[I-] [4-DAMP]	1.63	2.64	–
Nc1ncn([C@@H]2O[C@H](CO)[C@@H](O)[C@H]2O)c(=O)n1 [AZACITIDINE]	1.54	-2.17	–
O=c1[nH]c(=O)n([C@H]2C[C@H](O)[C@@H](CO)O2)cc1Br [BROXURIDINE]	–	-0.29	–
O=C(O)CCCc1ccc(N(CCCl)CCCl)cc1 [CHLORAMBUCIL]	–	1.47	Log CR (CHO [4]): 0.3
COc1cc2c(c(OC)c1OC)-c1ccc(OC)c(=O)cc1[C@@H](NC(C)=O)CC2 [COLCHICINE]	–	1.03	Log CR (CHO [4]): 2.26; Log CR (CCRF-CEM): 1.08
O=P1(N(CCCl)CCCl)NCCCO1 (configuration not stated) [CYCLOPHOSPHAMIDE ANHYDROUS]	–	0.63	Log sensitivity (CHRC5 cell line [3]): 0.52
C=C1[C@@H](C)[C@H]2[C@H](Cc3ccccc3)NC(=O)[C@]23OC(=O)/C=C/[C@H](O)CCC[C@@H](C)C/C=C/[C@H]3[C@@H]1O [CYTOCHALASIN B]	–	3.37	Log CR (CHO [4]): 1.04
Cc1c2oc3c(C)ccc(C(=O)N[C@@H]4C(=O)N[C@H](C(C)C)C(=O)N5CCC[C@H]5C(=O)N(C)CC(=O)N(C)[C@@H](C(C)C)C(=O)O[C@@H]4C)c3nc-2c(C(=O)N[C@@H]2C(=O)N[C@H](C(C)C)C(=O)N3CCC[C@H]3C(=O)N(C)CC(=O)N(C)[C@@H](C(C)C)C(=O)O[C@@H]2C)c(N)c1=O [DACTINOMYCIN] (I: T[dV]P[Sar][NMeV] / II: T[dV]P[Sar][NMeV]; ester I:1-I:C, II:1-II:C; linker I:N-II:N via Actinocin(1to9))	0.12	3.21	–
COc1cccc2c1C(=O)c1c(O)c3c(c(O)c1C2=O)C[C@@](O)(C(C)=O)C[C@@H]3O[C@H]1C[C@H](N)[C@H](O)[C@H](C)O1 [DAUNORUBICIN]	–	–	Log CR (CCRF-CEM): 1.2
CN[C@H]1CCc2cc(OC)c(OC)c(OC)c2-c2ccc(OC)c(=O)cc21 [DEMECOLCINE]	–	1.37	Log CR (CHO [4]): 1.2
C[C@]12CC[C@H]3[C@@H](CCC4=CC(=O)CC[C@@]43C)[C@@H]1CC[C@@H]2C(=O)CO [DESOXYCORTICOSTERONE]	–	3.08	Log sensitivity (CHRC5 cell line [3]): 1
COc1cccc2c1C(=O)c1c(O)c3c(c(O)c1C2=O)C[C@@](O)(C(=O)CO)C[C@@H]3O[C@H]1C[C@H](N)[C@H](O)[C@H](C)O1 [DOXORUBICIN]	–	0.1	Log CR (CHO [4]): 1.4; Log CR (CCRF-CEM): 1.46
CC[C@H]1CN2CCc3cc(OC)c(OC)cc3[C@@H]2C[C@@H]1C[C@H]1NCCc2cc(OC)c(OC)cc21 [EMETINE]	–	3.24	Log CR (CHO [5]): 1.46
CC[C@H]1OC(=O)[C@H](C)[C@@H](O[C@H]2C[C@@](C)(OC)[C@@H](O)[C@H](C)O2)[C@H](C)[C@@H](O[C@@H]2O[C@H](C)C[C@H](N(C)C)[C@H]2O)[C@](C)(O)C[C@@H](C)C(=O)[C@H](C)[C@@H](O)[C@]1(C)O [ERYTHROMYCIN]	–	1.26	Log CR (CHO [4]): 0.7
CCc1nc(N)nc(N)c1-c1ccc(Cl)c(Cl)c1 [ETOPRINE]	–	2.93	Log CR (L1210 [6]): 1.69
C[n+]1c2cc(N)ccc2cc2ccc(N)cc21.[Cl-] [EUFLAVINE]	–	1.6	Log CR (CHO [5]): 0.84

Compound	Log CR (L1210 [1])	logD (physchem)	other results
O=c1[nH]cc(F)c(=O)[nH]1 [FLUOROURACIL]	-0.04	-0.89	Log CR (CHO [4]): 0
Nc1n[nH]c(N)n1 [GUANAZOLE]	0.08	-1.61	–
CC[n+]1c(-c2ccccc2)c2cc(N)ccc2c2ccc(N)cc21.[Br-] [HOMIDIUM BROMIDE]	–	1.15	Log CR (CHO [4]): 1.04
NC(=O)NO [HYDROXYUREA]	0.3	-1.27	–
COc1cc2cc(c1Cl)N(C)C(=O)C[C@H](OC(=O)[C@H](C)N(C)C(C)=O)[C@]1(C)O[C@H]1[C@H](C)[C@@H]1C[C@@](O)(NC(=O)O1)[C@H](OC)/C=C/C=C(\C)C2 [MAYTANSINE]	1.23	–	Log CR (CCRF-CEM): 2.85
Sc1ncnc2nc[nH]c12 [MERCAPTOPURINE ANHYDROUS]	–	0.01	Log CR (L1210 [7]): 0.6; Log CR (CHO [8]): -0.3
CN(Cc1cnc2nc(N)nc(N)c2n1)c1ccc(C(=O)N[C@@H](CCC(=O)O)C(=O)O)cc1 [METHOTREXATE]	–	-2.52	Log CR (L1210 [6]): 2.55; Log CR (CHO [8]): 0.04
Cc1nc(N)nc(N)c1-c1ccc(Cl)c(Cl)c1 [METOPRINE]	–	2.56	Log CR (L1210 [7]): 1.7
COc1ccc(OC)c(Cc2cnc3nc(N)nc(N)c3c2C)c1 [PIRITREXIM]	–	1.77	Log CR (L1210 [7]): 1.89
CO[C@H](C(=O)[C@@H](O)[C@@H](C)O)[C@@H]1Cc2cc3cc(O[C@H]4C[C@@H](O[C@H]5C[C@@H](O)[C@H](O)[C@@H](C)O5)[C@H](O)[C@@H](C)O4)c(C)c(O)c3c(O)c2C(=O)[C@H]1O[C@H]1C[C@@H](O[C@H]2C[C@@H](O[C@H]3C[C@](C)(O)[C@H](O)[C@@H](C)O3)[C@@H](O)[C@@H](C)O2)[C@H](O)[C@@H](C)O1 [PLICAMYCIN]	–	-0.25	–
CO[C@H](C(=O)[C@@H](O)[C@@H](C)O)[C@@H]1Cc2cc3cc(O[C@H]4C[C@@H](O[C@@H]5C[C@@H](O)[C@H](O)[C@@H](C)O5)[C@H](O)[C@@H](C)O4)c(C)c(O)c3c(O)c2C(=O)[C@H]1O[C@H]1C[C@@H](O[C@@H]2C[C@@H](O)[C@@H](O[C@@H]3C[C@](C)(O)[C@H](O)[C@@H](C)O3)[C@@H](C)O2)[C@H](O)[C@@H](C)O1 [PLICAMYCIN]	0.66	–	–
CCN(CC)CCOC(=O)c1ccc(N)cc1 [PROCAINE]	–	0.3	Log sensitivity (CHRC5 cell line [9]): 0.4
Nc1ccc2cc3ccc(N)cc3nc2c1 [PROFLAVINE]	–	1.1	Log CR (CHO [8]): 0.46; Log CR (CHO [5]): 0.6
CC(C)NCC(O)COc1cccc2ccccc12 (configuration not stated) [PROPRANOLOL]	–	–	Log sensitivity (CHRC5 cell line [9]): 0.7
COc1ccc(C[C@H](N)C(=O)N[C@H]2[C@@H](O)[C@H](n3cnc4c(N(C)C)ncnc43)O[C@@H]2CO)cc1 [PUROMYCIN]	1.82	0.86	Log CR (CHO [4]): 2.02
CC/C(=C(\c1ccccc1)c1ccc(OCCN(C)C)cc1)c1ccccc1 [TAMOXIFEN]	0.59	–	–
CCCC[N+](CCCC)(CCCC)CCCC.[Br-] [TETRABUTYLAMMONIUM BROMIDE]	–	-3	Log sensitivity (CHRC5 cell line [3]): -0.84
CCCCNc1ccc(C(=O)OCCN(C)C)cc1 [TETRACAINE]	–	–	Log sensitivity (CHRC5 cell line [9]): 0.7; logD [2]: 1
S=P(N1CC1)(N1CC1)N1CC1 [THIOTEPA]	–	0.53	Log CR (CHO [4]): 0
COc1cc(NCc2ccc3nc(N)nc(N)c3c2C)cc(OC)c1OC [TRIMETREXATE]	–	0.84	Log CR (L1210 [7]): 1.75
CC(C)[C@@H]1NC(=O)[C@H](C)OC(=O)[C@@H](C(C)C)NC(=O)[C@@H](C(C)C)OC(=O)[C@H](C(C)C)NC(=O)[C@H](C)OC(=O)[C@@H](C(C)C)NC(=O)[C@@H](C(C)C)OC(=O)[C@H](C(C)C)NC(=O)[C@H](C)OC(=O)[C@@H](C(C)C)NC(=O)[C@@H](C(C)C)OC1=O [VALINOMYCIN]	0.59	3.24	–
CC[C@]1(O)C[C@@H]2CN(CCc3c([nH]c4ccccc34)[C@@](C(=O)OC)(c3cc4c(cc3OC)N(C)[C@H]3[C@@](O)(C(=O)OC)[C@H](OC(C)=O)[C@]5(CC)C=CCN6CC[C@]43[C@@H]65)C2)C1 [VINBLASTINE]	–	–	Log CR (CCRF-CEM): 1.28
CC[C@]1(O)C[C@H]2CN(CCc3c([nH]c4ccccc34)[C@@](C(=O)OC)(c3cc4c(cc3OC)N(C=O)[C@H]3[C@@](O)(C(=O)OC)[C@H](OC(C)=O)[C@]5(CC)C=CCN6CC[C@]43[C@@H]65)C2)C1 [VINCRISTINE]	–	2.57	Log CR (CCRF-CEM): 2.76
CC[C@]1(O)C[C@@H]2CN(CCc3c([nH]c4ccccc34)[C@@](C(=O)OC)(c3cc4c(cc3OC)N(C)[C@H]3[C@@](O)(C(N)=O)[C@H](O)[C@]5(CC)C=CCN6CC[C@]43[C@@H]65)C2)C1 [VINDESINE]	–	0.67	Log CR (CCRF-CEM): 3
BLEOMYCIN [listing 1 of 2 here]	–	–	logD [2]: -2.38
BLEOMYCIN [listing 2 of 2 here]	–	–	Log CR (CHO [10]): 0; Log CR (L1210 [11]): 0.24
